Assay results from patent US12102709B2, “Anti-obesity agent, anti-dementia agent, deodorant, anti-aging agent, anti-glycation agent, anti-type I allergy agent, hypotensive agent, flavor improving agent, muscle enhancing agent, and bone metabolism improving agent” (Mitsui Sugar Co., Ltd., priority 2018, dated 2024).

System: C2C12 cells
Assay: Myotube cell differentiation promotion test (Fusion index)
Format: cell-based, mouse
Settings: 0.5 μM LDN-193189 with DMSO; 3 days; Comparative Example i2-2 55.1 ± 0.09
Protocol: (Cells) • Mouse Myoblasts C2C12 Cells (ATCC, CRL-1772) (Culture Mediums) • Growth culture medium composition: DMEM culture medium, 10% FBS, antibiotics added • Differentiation culture medium composition: DMEM culture medium, 0.5% FBS, antibiotics added C2C12 cells were cultivated using a growth culture medium in a T-75 flask (75 cm^2 U-shaped canted neck cell culture flask, commercially available from Corning Co., Ltd.). The T-75 flask was put into a CO2 incubator (5% CO2, 37° C., wet) and the C2C12 cells were cultured. The culture medium was replaced every other day, and when an 80% confluence was reached, the cells were collected and used for the test. Here, in the following test, regarding a well plate for culturing C2C12 cells, a plate coated with gelatin according to the following coating method was used. Pre-cultured cells were seeded in a 96-well plate for fluorescence observation at 4×10^4 cells/0.1 mL/well using a growth culture medium. The well plate was cultured in a CO2 incubator (5% CO2, 37° C.) for 2 days. […] After the culture medium was replaced, culturing was performed for 3 days, and after fixing, immunostaining with anti-myosin heavy chain (MHC) antibodies was performed. […] A total number of Hoechst positive nuclei and the number of MHC-positive nuclei were measured, and the Fusion index (% of MHC+nuclei) was calculated according to the following formula. […]

c1ccc2c(-c3cnn4cc(-c5ccc(N6CCNCC6)cc5)cnc34)ccnc2c1 [Positive Control i2, 4-(6-(4-(piperazine-1-yl)phenyl)pyrazolo[1,5-a]pyrimidin-3-yl)quinoline]
Fusion index (% of MHC + nuclei): 63.7 ± 0.88 %
